As a reminder, the EC50 is the concentration needed to bring the measured effect to its halfway point. What is called pIC50 is −log10 of the IC50, conventionally taken in molar units. Higher therefore signals a small IC50. Broadly, the IC50 is the concentration that gives 50% inhibition. For orientation: chromatographic logD means a lipophilicity value derived from retention on a column. Higher therefore signals a more lipophilic compound.

Data on 37 compounds can be found in ChEMBL document CHEMBL4330129 (Bioorg Med Chem, 2019).

Converted amounts (≈) assume the structure as drawn.

Series [1] in a line: Activation of Keap1/Cul3/Nrf2 in human BEAS2B cells assessed as increase in NQO1 levels measured after 48 hrs. The class given is cell-based. Conditions: BEAS-2B.
Series [2] can be described thus: Binding affinity to FLAG/His-tagged Keap1 (unknown origin)/biotinylated full-length FLAG/His/Tev/Avi-tagged Cul3 (unknown origin) expressed in baculovirus infected Sf9 insect cells measured after 1 hr by TR-FRET assay. Also noted: species or system Homo sapiens. On the technique in general: Time-resolved FRET reads energy transfer from a long-lived donor to a nearby acceptor.

A further series addresses Keap1/Nrf2 (Homo sapiens, UniProt Q14145+Q16236). Nature of the series: Binding affinity to FLAG/His-tagged Keap1 (unknown origin)/biotinylated full-length FLAG/His/Tev/Avi-tagged NRF2 (unknown origin) expressed in baculovirus infected Sf9 insect cells measured after 1 hr by TR-FRET assay.
For the next series, the species on record is Homo sapiens. Nature of the series: Activation of Keap1/Cul3/Nrf2 in NHBE cells assessed as induction of HO-1 gene expression at 10 uM after 24 hrs by RT-PCR analysis relative to SFN. The class given is cell-based.
Series [3] can be described thus: Kinetic solubility of the compound at pH 7.4 by CLND method. The series is classed as physicochemical. The note with it: buffer, read-out: Kinetic_solubility.
Series [4] is described as follows: Lipophilicity, log D of the compound at pH 7.4 by chromatographic method. Conditions: buffer. The series is classed as physicochemical.

Sequence of Keap1/Nrf2 (Q16236 whole entry): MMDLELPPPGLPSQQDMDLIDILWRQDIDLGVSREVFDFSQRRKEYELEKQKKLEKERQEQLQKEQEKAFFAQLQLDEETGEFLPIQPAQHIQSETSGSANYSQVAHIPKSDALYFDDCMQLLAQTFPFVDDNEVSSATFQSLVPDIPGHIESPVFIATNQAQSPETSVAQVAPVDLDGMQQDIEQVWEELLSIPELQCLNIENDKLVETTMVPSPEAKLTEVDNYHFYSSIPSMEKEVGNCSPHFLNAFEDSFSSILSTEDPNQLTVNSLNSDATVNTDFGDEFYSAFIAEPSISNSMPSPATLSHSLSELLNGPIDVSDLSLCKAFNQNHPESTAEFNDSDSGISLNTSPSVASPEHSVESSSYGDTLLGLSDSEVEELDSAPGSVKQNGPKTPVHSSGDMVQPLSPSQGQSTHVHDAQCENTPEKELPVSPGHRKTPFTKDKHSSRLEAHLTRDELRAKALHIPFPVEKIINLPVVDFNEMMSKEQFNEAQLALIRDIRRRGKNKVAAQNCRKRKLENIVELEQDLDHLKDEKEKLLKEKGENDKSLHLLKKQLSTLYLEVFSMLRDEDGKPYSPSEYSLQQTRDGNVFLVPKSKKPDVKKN
Sequence of Keap1/Nrf2 (Q14145 whole entry): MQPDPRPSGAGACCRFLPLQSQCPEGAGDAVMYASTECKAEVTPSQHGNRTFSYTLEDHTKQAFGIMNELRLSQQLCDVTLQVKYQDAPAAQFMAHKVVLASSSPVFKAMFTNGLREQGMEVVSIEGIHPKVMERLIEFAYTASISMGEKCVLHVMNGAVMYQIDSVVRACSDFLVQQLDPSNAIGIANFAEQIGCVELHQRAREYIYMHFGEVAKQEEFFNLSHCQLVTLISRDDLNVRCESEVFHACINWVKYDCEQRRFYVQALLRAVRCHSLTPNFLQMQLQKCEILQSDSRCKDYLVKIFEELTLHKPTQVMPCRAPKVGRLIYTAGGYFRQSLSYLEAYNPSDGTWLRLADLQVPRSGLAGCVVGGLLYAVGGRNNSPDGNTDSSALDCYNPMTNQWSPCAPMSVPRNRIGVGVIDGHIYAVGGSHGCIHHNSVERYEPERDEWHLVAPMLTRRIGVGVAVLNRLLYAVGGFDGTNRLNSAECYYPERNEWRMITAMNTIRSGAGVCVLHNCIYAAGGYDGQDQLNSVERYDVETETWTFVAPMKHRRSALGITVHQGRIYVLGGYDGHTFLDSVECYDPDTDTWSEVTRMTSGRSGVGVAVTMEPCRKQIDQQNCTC

With `CC(=O)N[C@@H](CSC(=S)NCCCN(C)c1c(N(C)C)c(=O)c1=O)C(=O)O`, the concentration giving a half-maximal response (EC50) in series [1] is 1.58 µM.
The compound `CC(=O)N[C@@H](CSC(=S)NCCCC[S+](C)[O-])C(=O)O` (stereo not given in full) gave a pIC50 in series [2] of less than 4. The concentration for half-maximal inhibition (IC50) at Keap1/Nrf2 is greater than 100 µM. Moreover, the fold change (FC) in the series filed under Homo sapiens was 5.8. Moreover, the solubility kinetic in series [3] was no less than 357 µM. In series [4], the chromatographic logD is -0.67. Also, the half-maximal effective concentration (EC50) in series [1] was 1.58 µM.
In the case of `COC(=O)[C@]12CCC(C)(C)C[C@H]1[C@H]1C(=O)C=C3[C@@]4(C)C=C(C#N)C(=O)C(C)(C)[C@@H]4CC[C@@]3(C)[C@]1(C)CC2` [BARDOXOLONE METHYL], in series [1], the concentration for a half-maximal effect (EC50) is 0.00871 µM.
Regarding `C[S+]([O-])CCCCNC(=S)SC[C@H](NC(=O)CC[C@H](N)C(=O)O)C(=O)NCC(=O)O` (stereo not given in full), in series [2], the negative logarithm of the IC50 (pIC50) is listed as less than 4. The compound further had an IC50 at Keap1/Nrf2 greater than 100 µM. Moreover, in the series filed under Homo sapiens, the fold change (FC) is 5.8. In addition, the solubility kinetic in series [3] is no less than 290 µM. The chromatographic logD in series [4] is -0.75. Also, in series [1], the EC50 is 1.58 µM.
Turning to `CN(C)c1c(N(C)CCCNC(=S)SC[C@H](NC(=O)CC[C@H](N)C(=O)O)C(=O)NCC(=O)O)c(=O)c1=O`, the EC50 in series [1] is 1.58 µM.
Consider `O=C(NCCCCN=C=S)NC1CCCC1`, for which, in series [2], the negative-log IC50 (pIC50) is listed as 4.4. This compound gave an IC50 on Keap1/Nrf2 of 50.1 µM. The fold change (FC) in the series listed under Homo sapiens was found to be 2.66. The solubility kinetic in series [3] stood at 419 µM (≈ 101 µg/mL). Besides, in series [4], the chromatographic logD worked out at 4.1.
The corresponding values for `C[S+]([O-])CCCCCN=C=S` (stereo not given) are 4.1, greater than 100 µM, 0.35, no less than 458 µM and 3.12.
The matching figures for `CN(C)CCS(=O)(=O)CCCCN=C=S`: 4.4, greater than 100 µM, 3.25, 376 µM (≈ 94.1 µg/mL) and 2.84.
The corresponding values for `O=C(NCCCCN=C=S)NCc1ccccc1` are 4.7, 15.8 µM, 6.42, 247 µM (≈ 65.1 µg/mL) and 4.29.
Compound `CS(=O)(=O)N1CCC(CCN=C=S)C1` (stereo not given) registered a negative-log IC50 (pIC50) in series [2] of 4.3. This compound gave an IC50 at Keap1/Nrf2 greater than 100 µM. The fold change (FC) in the series listed under Homo sapiens came out at 4.27. In series [3], the solubility kinetic was determined as 288 µM (≈ 67.5 µg/mL). Also, the chromatographic logD in series [4] was determined as 3.87.
The matching figures for `O=S(=O)(CCCCN=C=S)c1ccccc1`: 4.6, 50.1 µM, 4.31, no less than 364 µM and 4.92.
`CCCCNCCSC(=S)NCCCC[S+](C)[O-]` (stereo not given) gave a negative-log IC50 (pIC50) in series [2] of less than 4. The compound further had an IC50 on Keap1/Nrf2 greater than 100 µM. Besides, the fold change (FC) in the series filed under Homo sapiens came out at 0.08. Besides, the solubility kinetic in series [3] was no less than 420 µM. In series [4], this compound came in with a chromatographic logD of 4.34.
In series [2], `O=C(NCCCCN=C=S)c1ccncc1` gave a negative logarithm of the IC50 (pIC50) of 4.4. On Keap1/Nrf2, this compound gave an IC50 greater than 100 µM. The fold change (FC) in the series filed under Homo sapiens was found to be 0.93. The solubility kinetic in series [3] was no less than 358 µM. Also, the chromatographic logD in series [4] worked out at 2.86.
The matching figures for `COC(=O)C(CS(=O)(=O)CCCCN=C=S)NC(C)=O` (stereo not given): 4.3, greater than 100 µM, 0.16, no less than 444 µM and 2.44.
The corresponding values for `O=C(O)C(F)(F)F.[O-][S+](CCCCN=C=S)CCN1CCOCC1` (stereo not given) are less than 4, greater than 100 µM, 0.16, 81 µM and 1.91.
In series [2], `C[S+]([O-])CCCCNC(=S)SC1CCN(C(=O)OC(C)(C)C)CC1` (stereo not given) yielded a negative logarithm of the IC50 (pIC50) of 4.3. This compound had an IC50 at Keap1/Nrf2 greater than 100 µM. Besides, the fold change (FC) in the series listed under Homo sapiens amounted to 0.48. The solubility kinetic in series [3] came out at 382 µM (≈ 151 µg/mL). The compound further showed a chromatographic logD in series [4] of 4.23.
The corresponding values for `Cl.O=C(NCCCCNC(=S)SC1CCNCC1)Nc1ccncc1` are 4.7, 50.1 µM, 25.8, 281 µM and 0.49.
In the case of `O=C(NCCCCN=C=S)Nc1ccc2c(c1)OCO2`, the pIC50 in series [2] is recorded as 5. On Keap1/Nrf2, this compound gave a half-maximal inhibitory concentration (IC50) of 6.31 µM. Further, in the series listed under Homo sapiens, the fold change (FC) is 10.5. Moreover, in series [3], the solubility kinetic came to 42 µM (≈ 12.3 µg/mL). The compound further returned a chromatographic logD in series [4] of 4.25.
`CS(=O)(=O)N1CCC(CN=C=S)C1` (stereo not given): in series [2], the pIC50 turned out to be 4.1. This compound also showed an IC50 on Keap1/Nrf2 greater than 100 µM. For the same compound, in the series filed under Homo sapiens, the fold change (FC) came to 0.68. Besides, the solubility kinetic in series [3] is no less than 451 µM. In series [4], this compound showed a chromatographic logD of 3.22.
The matching figures for `CN1CCC(SC(=S)NCCCCNC(=O)NCc2ccccc2)CC1`: 4.9, 20 µM, 14.5, no less than 451 µM and 2.4.
The corresponding values for `C[S+]([O-])CCCCNC(=S)SCCSC(=S)NCCCC[S+](C)[O-]` (stereo not given) are 4.3, greater than 100 µM, 0.74, no less than 425 µM and 1.9.
For `Cc1ccccc1[S+]([O-])CCCCN=C=S` (stereo not given), the negative-log IC50 (pIC50) in series [2] amounted to 4.6. At Keap1/Nrf2, this compound gave a concentration for half-maximal inhibition (IC50) of 63.1 µM. The fold change (FC) in the series listed under Homo sapiens stood at 1.3. Also, the solubility kinetic in series [3] turned out to be 362 µM (≈ 91.7 µg/mL). Besides, the chromatographic logD in series [4] was found to be 4.69.
The corresponding values for `CN(C)CCC[S+]([O-])CCCCN=C=S` (stereo not given) are less than 4, greater than 100 µM, 0.27, no less than 250 µM and 0.81.
The matching figures for `CN(C)CCCS(=O)(=O)CCCCN=C=S`: less than 4, greater than 100 µM, 0.34, 210 µM (≈ 55.5 µg/mL) and 1.55.
The matching figures for `O=S(=O)(CC1(c2ccc(N=C=S)cc2)COC1)c1ccccc1`: 4.3, 39.8 µM, 0.23, 9 µM (≈ 3.11 µg/mL) and 4.21.
Turning to `CC(=O)N(C)CCS(=O)(=O)CCCCN=C=S`, in series [2], the pIC50 is listed as less than 4. Besides, the IC50 at Keap1/Nrf2 is greater than 100 µM. Also, the fold change (FC) in the series listed under Homo sapiens was 0.29. Moreover, in series [3], the solubility kinetic was no less than 340 µM. Besides, the chromatographic logD in series [4] worked out at 2.4.
The corresponding values for `CN1CCC(SC(=S)NCCCCNC(=O)Nc2ccc3nccnc3c2)CC1` are 5.1, 10 µM, 102, no less than 400 µM and 1.52.
The corresponding values for `[O-][S+](CCCCN=C=S)c1ccccn1` (stereo not given) are 4.2, 31.6 µM, 1.17, no less than 372 µM and 3.16.
The corresponding values for `CN1CCC(SC(=S)NCCCCNC(=O)Nc2ccncc2)CC1` are 4.9, 20 µM, 29.8, no less than 350 µM and 1.02.
`CC(C)(C)OC(=O)N1CCC(SC(=O)NCCCCN=C=S)CC1` registered a negative-log IC50 (pIC50) in series [2] of 5.1. Moreover, the IC50 at Keap1/Nrf2 was 12.6 µM. Also, in the series listed under Homo sapiens, the fold change (FC) was 4.01. Also, the solubility kinetic in series [3] was found to be 77 µM (≈ 28.8 µg/mL). Besides, in series [4], the chromatographic logD was determined as 6.72.
The matching figures for `CC(C)(C)OC(=O)N1CCC(SC(=S)NCCCCNC(=O)Nc2ccc3nccnc3c2)CC1`: 4.8, 15.8 µM, 100, 42 µM (≈ 21.8 µg/mL) and 5.02.
The matching figures for `CC(C)(C)OC(=O)N1CCC(SC(=S)NCCCCNC(=O)Nc2ccncc2)CC1`: 4.6, 31.6 µM, 20.7, 85 µM (≈ 39.8 µg/mL) and 4.58.
As to `CN1CCC(SC(=S)NCCCCNC(=O)OCc2ccccc2)CC1`, the negative-log IC50 (pIC50) in series [2] turned out to be 5.2. The compound further showed a 50% inhibitory concentration (IC50) on Keap1/Nrf2 of 10 µM. Also, the fold change (FC) in the series filed under Homo sapiens came to 4.67. Also, in series [3], the solubility kinetic amounted to 355 µM (≈ 140 µg/mL). The chromatographic logD in series [4] was determined as 3.49.
The matching figures for `CN1CCC(SC(=S)NCCCCNC(=O)Nc2cccnc2)CC1`: 4.7, 39.8 µM, 16, no less than 345 µM and 1.11.
The matching figures for `O=S(=O)(CC1(N2CCC(CN=C=S)CC2)COC1)c1ccccc1`: 4.7, 39.8 µM, 2.98, 341 µM (≈ 125 µg/mL) and 5.41.
The matching figures for `O=S(=O)(CCCCN=C=S)c1ccccn1`: 4.3, 31.6 µM, 2.24, no less than 331 µM and 3.85.
The compound `C[S+]([O-])CCCN=C=S` (stereo not given) returned a pIC50 in series [2] of less than 4. At Keap1/Nrf2, this compound gave an IC50 greater than 100 µM. Further, in the series listed under Homo sapiens, the fold change (FC) stood at 0.47. Further, the solubility kinetic in series [3] was 331 µM (≈ 54 µg/mL). This compound also came in with a chromatographic logD in series [4] of 0.85.
